Measurements as given in ChEMBL document CHEMBL3813616, “Discovery of novel 7-azaindoles as PDK1 inhibitors” (Bioorg Med Chem Lett, 2016).

How the values were obtained:
Design in all cases: scale not given: the % may be the effect or the level left
[1] = molecular target: T1, Serine/threonine-protein kinase Chk1 (Homo sapiens) (UniProt O14757); experiment: Inhibition of human CHK1 (1 to 476 residues) assessed as enzyme activity at 1 uM using 33P ATP by radioactive filter binding assay
T1 sequence (whole entry): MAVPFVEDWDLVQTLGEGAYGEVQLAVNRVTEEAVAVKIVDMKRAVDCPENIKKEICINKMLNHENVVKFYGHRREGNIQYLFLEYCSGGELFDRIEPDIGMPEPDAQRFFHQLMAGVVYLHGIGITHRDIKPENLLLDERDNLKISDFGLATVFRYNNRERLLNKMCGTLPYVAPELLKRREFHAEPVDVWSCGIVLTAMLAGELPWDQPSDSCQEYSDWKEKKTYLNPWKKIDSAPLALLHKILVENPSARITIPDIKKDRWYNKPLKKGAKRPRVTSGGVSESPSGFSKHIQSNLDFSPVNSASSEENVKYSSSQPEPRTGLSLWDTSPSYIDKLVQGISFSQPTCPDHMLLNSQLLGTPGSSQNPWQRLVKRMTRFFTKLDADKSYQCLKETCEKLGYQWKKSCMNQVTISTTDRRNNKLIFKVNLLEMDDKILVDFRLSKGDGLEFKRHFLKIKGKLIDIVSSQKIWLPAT

[2] = molecular target: T2, Serine/threonine-protein kinase D1 (Homo sapiens) (UniProt Q15139); experiment: Inhibition of human PKD1 (2 to 912 residues) assessed as enzyme activity at 1 uM using 33P ATP by radioactive filter binding assay
T2 sequence (whole entry): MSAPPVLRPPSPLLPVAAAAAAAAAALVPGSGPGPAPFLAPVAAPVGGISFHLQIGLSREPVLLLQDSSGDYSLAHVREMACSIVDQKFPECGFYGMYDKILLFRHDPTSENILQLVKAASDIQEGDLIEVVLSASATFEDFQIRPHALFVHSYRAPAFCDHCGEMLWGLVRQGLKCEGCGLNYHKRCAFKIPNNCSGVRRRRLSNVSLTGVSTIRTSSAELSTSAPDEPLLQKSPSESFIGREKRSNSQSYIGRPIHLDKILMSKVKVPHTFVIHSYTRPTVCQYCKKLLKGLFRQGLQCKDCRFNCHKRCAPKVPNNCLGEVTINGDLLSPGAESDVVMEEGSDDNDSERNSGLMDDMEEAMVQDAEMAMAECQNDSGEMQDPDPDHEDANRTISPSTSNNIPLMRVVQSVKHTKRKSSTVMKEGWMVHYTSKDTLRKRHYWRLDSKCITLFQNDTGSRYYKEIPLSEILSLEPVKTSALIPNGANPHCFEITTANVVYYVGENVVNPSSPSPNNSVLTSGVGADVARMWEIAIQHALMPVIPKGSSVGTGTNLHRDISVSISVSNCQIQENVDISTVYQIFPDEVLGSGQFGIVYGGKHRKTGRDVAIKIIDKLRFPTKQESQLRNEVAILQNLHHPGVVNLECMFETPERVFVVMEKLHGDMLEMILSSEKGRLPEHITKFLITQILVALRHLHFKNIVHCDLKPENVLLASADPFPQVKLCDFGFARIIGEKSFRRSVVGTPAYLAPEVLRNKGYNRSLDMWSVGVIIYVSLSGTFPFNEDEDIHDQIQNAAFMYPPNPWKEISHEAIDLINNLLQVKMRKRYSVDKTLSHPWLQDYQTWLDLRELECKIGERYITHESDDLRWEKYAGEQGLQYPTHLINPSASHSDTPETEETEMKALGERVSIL

[3] = molecular target: Aurora kinase B (Homo sapiens) (UniProt Q96GD4); experiment: Inhibition of human Aurora B (1 to 344 residues) assessed as enzyme activity at 1 uM using 33P ATP by radioactive filter binding assay
Sequence of Aurora kinase B (Homo sapiens) (Q96GD4 whole entry, the tested form may be a part): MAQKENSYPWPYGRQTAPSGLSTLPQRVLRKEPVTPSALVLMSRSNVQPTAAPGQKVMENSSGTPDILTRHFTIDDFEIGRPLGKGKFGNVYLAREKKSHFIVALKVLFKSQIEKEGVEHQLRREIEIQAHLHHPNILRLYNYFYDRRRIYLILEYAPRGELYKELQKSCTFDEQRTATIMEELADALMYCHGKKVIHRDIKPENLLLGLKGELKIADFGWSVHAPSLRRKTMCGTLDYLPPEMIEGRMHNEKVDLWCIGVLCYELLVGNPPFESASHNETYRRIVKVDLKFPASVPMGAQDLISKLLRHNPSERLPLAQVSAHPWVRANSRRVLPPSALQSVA

[4] = molecular target: SRSF protein kinase 1 (Homo sapiens) (UniProt Q96SB4); experiment: Inhibition of human SRPK1 (2 to 654 residues) assessed as enzyme activity at 1 uM using 33P ATP by radioactive filter binding assay
Sequence of SRSF protein kinase 1 (Homo sapiens) (Q96SB4 whole entry, the tested form may be a part): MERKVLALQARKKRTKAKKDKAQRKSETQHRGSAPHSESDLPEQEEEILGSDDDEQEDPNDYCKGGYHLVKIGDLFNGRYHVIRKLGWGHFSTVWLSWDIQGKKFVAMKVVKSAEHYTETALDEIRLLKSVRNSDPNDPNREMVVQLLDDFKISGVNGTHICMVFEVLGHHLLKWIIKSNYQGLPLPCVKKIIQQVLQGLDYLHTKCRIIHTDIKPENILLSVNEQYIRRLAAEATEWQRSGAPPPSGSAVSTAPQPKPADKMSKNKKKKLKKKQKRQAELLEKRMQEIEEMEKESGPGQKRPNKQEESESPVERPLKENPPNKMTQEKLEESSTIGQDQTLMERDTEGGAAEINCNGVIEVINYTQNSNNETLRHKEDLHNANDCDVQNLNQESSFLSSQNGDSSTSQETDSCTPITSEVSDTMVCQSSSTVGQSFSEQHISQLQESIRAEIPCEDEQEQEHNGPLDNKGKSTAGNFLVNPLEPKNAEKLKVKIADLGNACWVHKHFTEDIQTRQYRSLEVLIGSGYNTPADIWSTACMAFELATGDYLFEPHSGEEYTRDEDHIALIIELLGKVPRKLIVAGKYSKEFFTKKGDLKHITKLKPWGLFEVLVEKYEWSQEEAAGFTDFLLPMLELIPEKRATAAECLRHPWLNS

[5] = molecular target: Mitogen-activated protein kinase 11 (Homo sapiens) (UniProt Q15759); experiment: Inhibition of SAPK2b (unknown origin) assessed as enzyme activity at 1 uM using 33P ATP by radioactive filter binding assay
Sequence of Mitogen-activated protein kinase 11 (Homo sapiens) (Q15759 whole entry, the tested form may be a part): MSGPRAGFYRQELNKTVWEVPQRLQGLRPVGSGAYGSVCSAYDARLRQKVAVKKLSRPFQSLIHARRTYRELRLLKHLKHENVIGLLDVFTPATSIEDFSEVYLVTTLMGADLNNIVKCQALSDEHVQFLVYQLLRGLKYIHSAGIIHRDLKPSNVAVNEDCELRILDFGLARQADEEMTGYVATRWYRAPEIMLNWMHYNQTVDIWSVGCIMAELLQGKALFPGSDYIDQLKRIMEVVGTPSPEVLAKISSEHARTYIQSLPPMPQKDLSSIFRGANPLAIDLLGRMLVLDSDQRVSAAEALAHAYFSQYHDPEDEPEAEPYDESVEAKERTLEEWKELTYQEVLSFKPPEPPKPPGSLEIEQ

[6] = molecular target: Ribosomal protein S6 kinase alpha-5 (Homo sapiens) (UniProt O75582); experiment: Inhibition of human MSK1 (2 to 802 residues) assessed as enzyme activity at 1 uM using 33P ATP by radioactive filter binding assay
Sequence of Ribosomal protein S6 kinase alpha-5 (Homo sapiens) (O75582 whole entry, looked up, the tested form may be a part): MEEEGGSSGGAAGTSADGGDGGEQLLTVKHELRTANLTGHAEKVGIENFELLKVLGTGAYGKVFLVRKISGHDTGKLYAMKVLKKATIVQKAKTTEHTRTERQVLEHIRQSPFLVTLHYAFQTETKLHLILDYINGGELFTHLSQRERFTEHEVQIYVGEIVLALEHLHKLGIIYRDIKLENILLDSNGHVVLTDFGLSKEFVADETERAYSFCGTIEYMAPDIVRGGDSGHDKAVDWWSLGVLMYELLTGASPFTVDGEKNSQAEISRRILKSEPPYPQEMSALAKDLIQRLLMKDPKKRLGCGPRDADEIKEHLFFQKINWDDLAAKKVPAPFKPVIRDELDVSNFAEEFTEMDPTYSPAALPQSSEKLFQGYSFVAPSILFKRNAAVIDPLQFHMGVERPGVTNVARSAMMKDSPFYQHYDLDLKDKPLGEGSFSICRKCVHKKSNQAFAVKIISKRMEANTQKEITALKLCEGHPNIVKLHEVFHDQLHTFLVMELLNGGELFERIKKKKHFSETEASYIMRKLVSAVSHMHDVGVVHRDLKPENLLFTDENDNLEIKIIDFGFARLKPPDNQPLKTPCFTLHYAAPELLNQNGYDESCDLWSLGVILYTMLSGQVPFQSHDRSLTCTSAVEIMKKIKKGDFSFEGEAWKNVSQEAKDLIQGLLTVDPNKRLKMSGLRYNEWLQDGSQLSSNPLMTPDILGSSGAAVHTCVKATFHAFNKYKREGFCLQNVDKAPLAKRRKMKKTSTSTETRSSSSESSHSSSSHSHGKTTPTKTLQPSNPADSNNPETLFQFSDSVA

[7] = molecular target: T3, Serine/threonine-protein kinase BRSK2 (Homo sapiens) (UniProt Q8IWQ3); experiment: Inhibition of human BRSK2 (2 to 674 residues) assessed as enzyme activity at 1 uM using 33P ATP by radioactive filter binding assay
T3 sequence (whole entry): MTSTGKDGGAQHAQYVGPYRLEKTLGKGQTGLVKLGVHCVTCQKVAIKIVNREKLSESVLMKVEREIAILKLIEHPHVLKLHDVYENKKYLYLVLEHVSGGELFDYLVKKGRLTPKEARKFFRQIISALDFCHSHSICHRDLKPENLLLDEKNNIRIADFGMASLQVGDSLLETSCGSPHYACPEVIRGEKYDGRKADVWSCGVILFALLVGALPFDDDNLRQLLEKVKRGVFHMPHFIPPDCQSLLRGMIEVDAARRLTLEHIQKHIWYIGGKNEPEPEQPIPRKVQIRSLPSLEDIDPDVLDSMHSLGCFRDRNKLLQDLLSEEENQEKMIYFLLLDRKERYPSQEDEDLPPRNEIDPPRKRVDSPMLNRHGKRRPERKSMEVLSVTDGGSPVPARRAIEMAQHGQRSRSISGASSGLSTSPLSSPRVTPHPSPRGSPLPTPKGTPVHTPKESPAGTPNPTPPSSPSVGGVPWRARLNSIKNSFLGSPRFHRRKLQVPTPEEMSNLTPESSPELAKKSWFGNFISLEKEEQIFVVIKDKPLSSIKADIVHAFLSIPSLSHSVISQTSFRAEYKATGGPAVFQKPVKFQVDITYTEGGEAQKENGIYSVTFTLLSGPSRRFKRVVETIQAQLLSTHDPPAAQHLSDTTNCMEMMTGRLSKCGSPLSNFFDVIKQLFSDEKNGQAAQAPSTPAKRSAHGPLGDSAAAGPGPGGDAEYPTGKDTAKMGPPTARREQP

| Activity [1] | Activity [2] | Activity [3] | Activity [4] | Activity [5] | Activity [6] | Activity [7] | SMILES |
| --- | --- | --- | --- | --- | --- | --- | --- |
| -2% | -53% | -16% | -12% | -5% | -46% | -12% | CCCCc1cc(-c2c[nH]c3ncccc23)nc(N)n1 |
| -79% | -98% | -62% | -14% | -21% | -56% | -65% | CCCCc1cc(-c2c[nH]c3ncc(-c4cnn(C5CCNCC5)c4)cc23)nc(N)n1 |
| -89% | -96% |  | 3% | -18% | -43% | -65% | CCc1cc(-c2c[nH]c3ncc(-c4cnn(C5CCNCC5)c4)cc23)nc(N)n1 |
| -6% | -41% | -31% | -9% | -4% | -49% | -16% | Nc1nccc(-c2c[nH]c3ncccc23)n1 [MERIOLIN 1] |
